Drawing on patent publication US12486269B2 (Aconcagua Bio, Inc., priority 2024, dated 2025), this text covers EC50 for eight molecules.

The target in experiment [1] is T1, human calcitonin receptor (CTR) (Homo sapiens, UniProt P30988).
T1 construct: expressed in transfected cells; host or cells: COS-7 (COS7-human CTR Clone #2)
T1 sequence (P30988 25-474): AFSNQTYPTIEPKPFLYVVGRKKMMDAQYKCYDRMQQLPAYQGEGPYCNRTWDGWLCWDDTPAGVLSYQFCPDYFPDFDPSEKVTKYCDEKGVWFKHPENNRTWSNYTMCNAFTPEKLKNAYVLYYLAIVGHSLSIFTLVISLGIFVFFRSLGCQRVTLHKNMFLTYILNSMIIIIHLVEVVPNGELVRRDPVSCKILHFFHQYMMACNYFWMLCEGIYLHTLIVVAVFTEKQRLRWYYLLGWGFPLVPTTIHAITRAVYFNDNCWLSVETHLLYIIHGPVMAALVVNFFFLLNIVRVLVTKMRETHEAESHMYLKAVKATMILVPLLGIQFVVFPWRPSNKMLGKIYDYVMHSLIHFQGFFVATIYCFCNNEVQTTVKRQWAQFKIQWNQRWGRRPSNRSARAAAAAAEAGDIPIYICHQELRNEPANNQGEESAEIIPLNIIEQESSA
Description: Calcitonin Receptor (CTR) cAMP Assay. Particulars: COS7-human CTR Clone #2 stable cell line, cAMP dynamic 2 kit, 30 min; read-out: Calcitonin Receptor cAMP Stimulation Activity: EC50. The class given is cell-based. The method, boiled down:
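COS-7 cells stably expressing human CTR (2000 cells/well) were incubated 30 min at 37 °C with 4-fold serially diluted compound in HBSS/20 mM HEPES/0.5 mM IBMX/0.1% casein. cAMP was detected by HTRF (665/615 nm) after 1 h at RT. % activity was normalised to vehicle and positive controls.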

The target of experiment [2] is T2, COS-7/AMY3 (human calcitonin receptor (CTR) and RAMP3) (Homo sapiens, UniProt O60896+P30988).
T2 construct: expressed in transfected cells; host or cells: COS-7
In words: Amylin Receptor cAMP Assay II. The format is cell-based. Particulars: values marked **: Amylin Receptor cAMP Assay II; COS-7/AMY3 cells, cAMP dynamic 2 kit, 30 min; read-out: Amylin Receptor cAMP Stimulation Activity: EC50. The method, boiled down:
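COS-7 cells stably co-expressing human CTR and RAMP3 (AMY3), 2000 cells/well in HBSS with 20 mM HEPES, 0.5 mM IBMX, 0.1% casein, stimulated with compound for 30 min at 37 °C. cAMP measured by HTRF (665/615 nm), activity normalized between vehicle and maximal control.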

T2 sequence (O60896 24-148, one chain of several): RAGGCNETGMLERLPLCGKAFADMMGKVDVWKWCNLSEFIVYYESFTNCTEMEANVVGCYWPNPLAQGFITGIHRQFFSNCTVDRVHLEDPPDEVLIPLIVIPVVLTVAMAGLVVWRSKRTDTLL

In general, EC50 refers to the concentration giving half of the maximal effect. Take `COc1c(F)ccc2c1CC[C@H]2Nc1nccc2cc(-c3c4c(nc(CCc5ccccc5F)c3-c3n[nH]c(=O)o3)C35CC(CN3C4=O)C5)sc12` [Compound 276, (R)-5-(4-(7-((5-fluoro-4-methoxy-2,3-dihydro-1H-inden-1-yl)amino)thieno[2,3-c]pyridin-2-yl)-2-(2-fluorophenethyl)-5-oxo-8,9-dihydro-5H,7H-8,9a-methanopyrido[2,3-a]pyrrolizin-3-yl)-1,3,4-oxadiazol-2(3H)-one]: the EC50 in experiment [1] amounted to 0.0602 nM; in experiment [2], 1.57 nM.
The corresponding values for `COc1cccc2c1CC[C@H]2Nc1nc(C)cc2cc(-c3c4c(nc(CCc5ccc(F)cc5)c3-c3n[nH]c(=O)o3)[C@@H]3CCCN3C4=O)sc12` [Compound 207, 5-((S)-2-(4-fluorophenethyl)-4-(7-(((R)-4-methoxy-2,3-dihydro-1H-inden-1-yl)amino)-5-methylthieno[2,3-c]pyridin-2-yl)-5-oxo-7,8,9,9a-tetrahydro-5H-pyrido[2,3-a]pyrrolizin-3-yl)-1,3,4-oxadiazol-2(3H)-one] are 0.309 nM and 11.3 nM.
The corresponding values for `CC(c1ccc(C#N)c(F)c1)n1c(=O)oc2cc(-c3c4c(nc(CCc5ccc(F)cc5)c3-c3n[nH]c(=O)o3)[C@@H]3CCCN3C4=O)ccc21` (stereo partly drawn) [Compound 209, 2-fluoro-4-(1-(6-((S)-2-(4-fluorophenethyl)-5-oxo-3-(5-oxo-4,5-dihydro-1,3,4-oxadiazol-2-yl)-7,8,9,9a-tetrahydro-5H-pyrido[2,3-a]pyrrolizin-4-yl)-2-oxobenzo[d]oxazol-3(2H)-yl)ethyl)benzonitrile] are 0.154 nM and 17.2 nM.
`O=C1c2c(nc(CCc3ccc(F)cc3)c(-c3n[nH]c(=O)o3)c2-c2cc3ccnc(N[C@@H]4CCc5ccc(Cl)cc54)c3s2)C23CC(CN12)C3` [Compound 274, (R)-5-(4-(7-((6-chloro-2,3-dihydro-1H-inden-1-yl)amino)thieno[2,3-c]pyridin-2-yl)-2-(4-fluorophenethyl)-5-oxo-8,9-dihydro-5H,7H-8,9a-methanopyrido[2,3-a]pyrrolizin-3-yl)-1,3,4-oxadiazol-2(3H)-one]: the EC50 in experiment [1] is 0.255 nM; in experiment [2], 4.54 nM.
The corresponding values for `CC(c1ccc(C#N)c(F)c1)n1ccc2cc(-c3c(-c4n[nH]c(=O)o4)c(CCc4ccc(F)cc4)nc4c3c(=O)n3n4CCC3)ccc21` (stereo not shown) [Compound 159, 2-fluoro-4-[1-[5-[11-[2-(4-fluorophenyl)ethyl]-7-oxo-10-(2-oxo-3H-1,3,4-oxadiazol-5-yl)-2,6,12-triazatricyclo[6.4.0.02,6]dodeca-1(8),9,11-trien-9-yl]indol-1-yl]ethyl]benzonitrile] are 1.17 nM and 28.7 nM.
Consider `N#Cc1ccc(Cn2c(=O)oc3cc(-c4c5c(nc(CCc6ccc(F)cc6)c4-c4n[nH]c(=O)o4)[C@@H]4CCCN4C5=O)ccc32)nc1` [Compound 176, 6-[[6-[(9aS)-2-[2-(4-fluorophenyl)ethyl]-5-oxo-3-(2-oxo-3H-1,3,4-oxadiazol-5-yl)-7,8,9,9a-tetrahydropyrido[2,3-a]pyrrolizin-4-yl]-2-oxo-1,3-benzoxazol-3-yl]methyl]pyridine-3-carbonitrile], for which the values for the EC50 in experiment [1] and in experiment [2] were 0.557 nM and 10.7 nM, respectively.
For the molecule `O=C1c2c(nc(CCc3ccc(F)cc3)c(-c3noc(=O)[nH]3)c2-c2ccc3nn(C4CCc5ccccc54)cc3c2)[C@@H]2CCCN12` (stereo partly shown) [Compound 152], the EC50 is 513 nM in experiment [1] and 5100 nM in experiment [2].
The corresponding values for `COc1c(F)ccc2c1C[C@@H](F)[C@H]2Nc1nc(C)cc2cc(-c3c4c(nc(CCc5ccc(F)cc5)c3-c3n[nH]c(=O)o3)C35CC(CN3C4=O)C5)sc12` [Compound 196, 5-(4-(7-(((1S,2R)-2,5-difluoro-4-methoxy-2,3-dihydro-1H-inden-1-yl)amino)-5-methylthieno[2,3-c]pyridin-2-yl)-2-(4-fluorophenethyl)-5-oxo-8,9-dihydro-5H,7H-8,9a-methanopyrido[2,3-a]pyrrolizin-3-yl)-1,3,4-oxadiazol-2(3H)-one] are 0.00979 nM and 0.196 nM.
